Source: patent EP4737445A1, “NOVEL SATURATED HETEROCYCLE-SUBSTITUTED HETEROARYL-CARBONOHYDRAZONOYL DICYANIDE COMPOUND AND USE THEREOF” (Korea Institute of Science and Technology, priority 2023, dated 2025)
pIC50: −log10 of the molar value. Read-outs that look alike come from different tables or passages of the source.

Tests used:
Tau = target: T1, Tau (Homo sapiens, UniProt P10636); assay: Tau aggregation inhibition in Tau-BiFC cell model (Forskolin-induced); format: cell-based
T1 construct: BiFC fluorescent-protein fragments (two complementary halves on two tau copies); expressed in transfected cells
T1 sequence (P10636 1-441 isoform P10636-8): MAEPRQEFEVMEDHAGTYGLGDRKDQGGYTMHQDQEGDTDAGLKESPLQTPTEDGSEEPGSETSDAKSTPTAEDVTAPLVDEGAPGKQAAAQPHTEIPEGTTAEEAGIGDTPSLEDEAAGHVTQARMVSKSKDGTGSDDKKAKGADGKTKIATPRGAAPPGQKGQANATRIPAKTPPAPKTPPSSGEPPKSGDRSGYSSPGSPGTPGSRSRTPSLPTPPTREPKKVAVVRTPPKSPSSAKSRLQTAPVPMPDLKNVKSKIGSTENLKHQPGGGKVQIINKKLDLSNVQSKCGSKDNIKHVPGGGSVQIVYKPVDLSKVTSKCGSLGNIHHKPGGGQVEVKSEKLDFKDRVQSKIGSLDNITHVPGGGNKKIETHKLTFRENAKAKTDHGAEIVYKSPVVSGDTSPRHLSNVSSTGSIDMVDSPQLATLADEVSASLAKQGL
In short: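 Tau-BiFC cells were co-treated with compound (1, 3, 10 µM for screening; 0.03–30 µM for IC50) and 30 µM Forskolin for 48 h. BiFC fluorescence was normalised to the Forskolin-only window for aggregation; viability came from Hoechst-stained nuclei counts relative to Forskolin-only (100%). IC50 was derived by nonlinear regression.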

CYP1A2 = target: T2, CYP1A2 (Homo sapiens, UniProt P05177); assay: CYP isoenzyme activity inhibition in human liver microsomes, CYP1A2; format: in vitro ADME; details: 10 µM compound; human liver microsomes 0.25 mg/mL; relative to control without compound
T2 construct: human liver microsomes (0.25 mg/mL); from tissue; host or cells: human liver microsomes
T2 sequence (P05177 1-516): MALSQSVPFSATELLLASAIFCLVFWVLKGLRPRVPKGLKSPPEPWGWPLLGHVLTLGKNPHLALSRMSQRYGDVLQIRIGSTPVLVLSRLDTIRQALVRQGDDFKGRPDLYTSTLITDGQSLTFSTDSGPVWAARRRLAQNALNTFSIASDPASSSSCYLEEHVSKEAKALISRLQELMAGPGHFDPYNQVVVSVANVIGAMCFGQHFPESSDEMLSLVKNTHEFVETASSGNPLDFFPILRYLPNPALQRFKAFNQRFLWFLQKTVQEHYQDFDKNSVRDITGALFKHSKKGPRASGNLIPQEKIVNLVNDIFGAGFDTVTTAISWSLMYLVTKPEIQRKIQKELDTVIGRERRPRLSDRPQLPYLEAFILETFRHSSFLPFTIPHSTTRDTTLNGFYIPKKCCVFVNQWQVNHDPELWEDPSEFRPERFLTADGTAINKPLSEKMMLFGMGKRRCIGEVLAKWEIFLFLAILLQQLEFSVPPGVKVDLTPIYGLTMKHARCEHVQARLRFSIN
Description: The CYP isoenzyme activity inhibitory effect by the compounds prepared according to Examples 1 to 46 was confirmed. Specifically, human liver microsomes (0.25 mg/mL), 0.1 M phosphate buffer solution (pH 7.4), a substrate drug cocktail of five drug metabolizing enzymes (Phenacetin 50 µM, Diclofenac 10 µM, S-mephenytoin 100 µM, Dextromethorphan 5 µM, and Midazolam 2.5 µM), and the compounds were added at concentrations of 0 or 10 µM, respectively, and pre-incubated at 37°C for 5 minutes, and then NADPH generation system solution was added and incubated at 37°C for an additional 15 minutes. Thereafter, an acetonitrile solution containing an internal standard (Terfenadine) was added to terminate the reaction, and after centrifugation for 5 minutes (14,000 rpm, 4°C), the supernatant was injected into an LC-MS/MS system to simultaneously analyze the metabolites of the substrate drugs, thereby evaluating the drug metabolizing enzyme inhibitory activity.
The metabolites of each CYP isoenzyme marker drug generated through the reaction were analyzed using a Shimadzu Nexera XR system and TSQ vantage (Thermo). A Kinetex C18 (2.1 × 100 mm, 2.6 µm, particle size; Phenomenex, USA) was used as the HPLC column, and (A) distilled water containing 0.1% formic acid and (B) acetonitrile containing 0.1% formic acid were used as mobile phases, and a gradient program as shown in Table 6 below was applied.
The generated metabolites were quantified using MRM (Multiple Reaction Monitoring) quantitative mode, and Xcalibur (version 1.6.1) was used for data analysis. To show the CYP isoenzyme activity inhibitory effect of the novel compounds prepared according to the Examples of the disclosure, the % activity of CYP isoenzymes relative to the control group without compound addition is shown in Table 6 below. Additionally, to confirm the difference in effect according to substituents, Comparative Compounds 1 and 5, which are two compounds that share a similar parent nucleus structure with Compounds 1 to 46 of the disclosure while Cy is substituted with aromatic heteroaryl instead of saturated heterocyclyl, were selected as comparative compounds and their activities are shown together.

[1] = read-out: Tau aggregation inhibitory effect IC50, Tau-BiFC cell line, Forskolin 30 µM, 48 hours, 0.03-30 µM

SMILES | pIC50 (Tau) | CYP1A2 (% activity) (CYP1A2) | pIC50 (Tau; [1])
Cn1c(N2CCOCC2)nc2ccc(NN=C(C#N)C#N)cc21 [Compound 5, (1-methyl-2-morpholino-1H-benzo[d]imidazol-6-yl)carbonohydrazonoyl dicyanide] | 7.49 | 84.3 | 
N#CC(C#N)=NNc1ccc2oc(N3CCOCC3)nc2c1 [Compound 3, (2-morpholinobenzo[d]oxazol-5-yl)carbonohydrazonoyl dicyanide] | 7.70 | 99.9 | 
COC1CCN(c2nc3ccc(NN=C(C#N)C#N)cc3o2)CC1 [Compound 17, (2-(4-methoxypiperidin-1-yl)benzo[d]oxazol-6-yl)carbonohydrazonoyl dicyanide] | 7.06 | 83.2 | 
CC1CN(C(=O)Nc2nc3ccc(NN=C(C#N)C#N)cc3s2)CC(C)O1 (centres unmarked) [Compound 39, (2-(2,6-dimethylmorpholine-4-carboxamido)benzo[d]thiazol-6-yl)carbonohydrazonoyl dicyanide] | 7.36 | 84 | 
N#CC(C#N)=NNc1ccc2nc(N3CC[C@@H](F)C3)oc2c1 [Compound 41, (R)-(2-(3-fluoropyrrolidin-1-yl)benzo[d]oxazol-6-yl)carbonohydrazonoyl dicyanide] |  | 71.9 | 6.59
Cn1c(N2C3CCC2COC3)nc2cc(NN=C(C#N)C#N)ccc21 [Compound 35, (2-(3-oxa-8-azabicyclo[3.2.1]octan-8-yl)-1-methyl-1H-benzo[d]imidazol-5-yl)carbonohydrazonoyl dicyanide] | 7.92 | 81.5 | 
CC(C)N1CCN(c2nc3ccc(NN=C(C#N)C#N)cc3s2)CC1 [Compound 27, (2-(4-isopropylpiperazin-1-yl)benzo[d]thiazol-6-yl)carbonohydrazonoyl dicyanide] | 7.36 | 95.1 | 
CN1CCN(c2nc3ccc(NN=C(C#N)C#N)cc3s2)CC1 [Compound 8, (2-(4-methylpiperazin-1-yl)benzo[d]thiazol-6-yl)carbonohydrazonoyl dicyanide] | 7.49 | 91.8 | 
N#CC(C#N)=NNc1ccc2nc(NC(=O)N3CC4CCC(C3)O4)sc2c1 [Compound 40, (2-(8-oxa-3-azabicyclo[3.2.1]octane-3-carboxamido)benzo[d]thiazol-6-yl)carbonohydrazonoyl dicyanide] |  | 80.2 | 6.50
CC(=O)N1CCN(c2nc3ccc(NN=C(C#N)C#N)cc3s2)CC1 [Compound 30, (2-(4-acetylpiperazin-1-yl)benzo[d]thiazol-6-yl)carbonohydrazonoyl dicyanide] | 7.22 | 88.9 | 
